Literature values in US12133900B2, “Synthesis and composition of amino acid linking groups conjugated to compounds used for the targeted imaging of tumors” (Purdue Research Foundation, priority 2013, dated 2024).

Assays:
[1] = test system: malignant lesions in human ovarian cancer patients; settings: intra-operative; cited from earlier work
[2] = instability of the thiourea bridge; cited from earlier work

For `Nc1nc2ncc(CNc3ccc(C(=O)NC(CCC(=O)NCCNC(=S)Nc4ccc(-c5c6ccc(=O)cc-6oc6cc(O)ccc56)c(C(=O)O)c4)C(=O)O)cc3)nc2c(=O)[nH]1` (stereo not drawn) [EC17, folate-ethelenediamine-fluorescein isothiocynate], the “more malignant lesions removed with the dye than without it” value [1] is given as about 5 ×, the “pathology of resected fluorescent lesions” value [1] is given as “confirmed by pathology to be malignant” and the “shelf-life stability” value [2] is given as “easily decomposes”.
